Laboratory results from patent US20250114342A1, “APIXABAN ORAL LIQUID DOSAGE FORMS” (Shilpa Medicare Limited, priority 2023, published 2025).
Read-outs that look alike come from different tables or passages of the source.

What was measured:
[1] = cited from earlier work
[2] = Drug-excipients compatibility study (thermal stability); assay type: physicochemical
Protocol: Amounts of apixaban and other components identified here were determined chromatographically, e.g., High Performance Liquid Chromatograph (HPLC). Amounts of apixaban related substances identified here were also determined chromatographically, e.g., High Performance Liquid Chromatograph (HPLC).

Structure (SMILES): COc1ccc(-n2nc(C(N)=O)c3c2C(=O)N(c2ccc(N4CCCCC4=O)cc2)CC3)cc1 [apixaban, 1-(4-methoxyphenyl)-7-oxo-6-[4-(2-oxopiperidin-1-yl)phenyl]-4,5,6,7-tetrahydro-1H-pyrazolo[3,4-c]pyridine-3-carboxamide]
- solubility ([1]; 2 mg of apixaban, 100% propylene glycol, 20° C.): partially soluble
- solubility ([1]; higher amount of apixaban, 40% propylene glycol+60% glycerol, 20° C.): insoluble
- solubility ([1]; higher amount of apixaban, 40% propylene glycol+60% glycerol, 40° C.): gets dissolved
- Any individual unspecified impurity ([2]; 15 Days 60° C. Close Vial): 0.03 % w/w
- Related substances: Acid Impurity ([2]; 15 Days 60° C. Close Vial): 0.02 % w/w
- Total impurities ([2]; 15 Days 60° C. Close Vial): 0.07 % w/w
- Any individual unspecified impurity ([2]; 30 Days 25° C. Close Vial): 0.03 % w/w
- Related substances: Acid Impurity ([2]; 30 Days 25° C. Close Vial): 0.01 % w/w
- Total impurities ([2]; 30 Days 25° C. Close Vial): 0.07 % w/w
- Any individual unspecified impurity ([2]; 30 Days 25° C. Open Vial): 0.02 % w/w
- Related substances: Acid Impurity ([2]; 30 Days 25° C. Open Vial): 0.02 % w/w
- Total impurities ([2]; 30 Days 25° C. Open Vial): 0.07 % w/w
- Any individual unspecified impurity ([2]; 30 Days 40° C. Close Vial): 0.03 % w/w
- Related substances: Acid Impurity ([2]; 30 Days 40° C. Close Vial): 0.02 % w/w
- Total impurities ([2]; 30 Days 40° C. Close Vial): 0.09 % w/w
- Any individual unspecified impurity ([2]; 30 Days 40° C. Open Vial): 0.03 % w/w
- Related substances: Acid Impurity ([2]; 30 Days 40° C. Open Vial): 0.02 % w/w
- Total impurities ([2]; 30 Days 40° C. Open Vial): 0.09 % w/w
- Any individual unspecified impurity ([2]; Initial): 0.02 % w/w
- Related substances: Acid Impurity ([2]; Initial): 0.01 % w/w
- Total impurities ([2]; Initial): 0.06 % w/w
